Results: PMC4537157 (PLoS ONE, 2015)

Legend:
Format in all cases: cell-based
[1] = test system: human adult peripheral blood; experiment: Whole blood cytokine assay (TNF, IL-1β ELISA), adult peripheral blood; settings: 6 h
Method: (§1) Assessment of TLRA activity in whole blood was completed as previously described. […] Vehicle (DMSO) was added separately as a control. Suspensions containing 200 μl/well were gently mixed by pipetting and incubating for 6 h at 37°C in a humidified incubator at 5% CO2. After culture, plates were centrifuged at 500 x g and 100–150 μl of supernatant was carefully removed by pipetting without disturbing the cell pellet. Supernatants derived from human leukocyte stimulations were assayed by enzyme-linked immunoabsorbent assay (ELISA) for TNF (BD Biosciences, San Jose, CA, USA) and IL-1β (eBiosciences, San Diego, CA). Experiments were performed in triplicates.
(§2) Compound concentrations are shown in μM. Data are shown as mean ± SEM of n = 6–8.
(§3) Compound concentrations are shown in μM/ml. Cytokine production is shown as pg/ml. (PDF) Click here for additional data file.

human newborn cord blood = experiment: Whole blood cytokine assay (TNF, IL-1β ELISA), newborn cord blood; settings: 6 h
Method: as §1, §2, §3

[2] = test system: human newborn and adult leukocytes; experiment: Whole blood and MoDC assays, overall potency as summarised in the discussion; settings: Leukocyte, Tested in both whole blood and MoDC assays
Method: as §1

human newborn MoDCs = experiment: TNF production by newborn monocyte-derived dendritic cells; settings: human neonatal MoDCs, tested 0.1–10 μM, 24 h

Row | Structure (SMILES) | IL-1β production ([1]; 0.01 µM) | TNF-α production ([1]; 0.01 µM) | IL-1β production ([1]; 0.03 µM) | TNF-α production ([1]; 0.03 µM) | IL-1β production ([1]; 0.1 µM) | TNF-α production ([1]; 0.1 µM) | IL-1β production ([1]; 0.3 µM) | TNF-α production ([1]; 0.3 µM) | IL-1β production ([1]; 1 µM) | TNF-α production ([1]; 1 µM) | IL-1β production ([1]; 10 µM) | TNF-α production ([1]; 10 µM) | IL-1β production (human newborn cord blood; 0.01 µM) | TNF-α production (human newborn cord blood; 0.01 µM) | IL-1β production (human newborn cord blood; 0.03 µM) | TNF-α production (human newborn cord blood; 0.03 µM) | IL-1β production (human newborn cord blood; 0.1 µM) | TNF-α production (human newborn cord blood; 0.1 µM) | IL-1β production (human newborn cord blood; 0.3 µM) | TNF-α production (human newborn cord blood; 0.3 µM) | further results
1 | CCCCc1nc2c(N)nc3ccccc3c2n1Cc1cccc(CN)c1 [Meta-amine] | 15.63 pg/mL | 23.44 pg/mL | 15.63 pg/mL | 23.44 pg/mL | 15.63 pg/mL | 20.83 pg/mL | 15.63 pg/mL | 214.57 pg/mL | 232.86 pg/mL | 3739.68 pg/mL | 2699.66 pg/mL | 19087.54 pg/mL | 15.63 pg/mL | 79.15 pg/mL | 15.63 pg/mL | 78.72 pg/mL | 15.63 pg/mL | 94.65 pg/mL | 15.63 pg/mL | 93.72 pg/mL | IL-1β production (human newborn cord blood; 1 µM): 271.87 pg/mL; TNF-α production (human newborn cord blood; 1 µM): 1779.40 pg/mL; IL-1β production (human newborn cord blood; 10 µM): 6199.29 pg/mL; TNF-α production (human newborn cord blood; 10 µM): 32214.43 pg/mL
2 | CCCCc1nc2c(N)nc3ccccc3c2n1Cc1ccc(CN)cc1 [Para-amine] | 15.63 pg/mL | 23.44 pg/mL | 15.63 pg/mL | 121.74 pg/mL | 15.63 pg/mL | 856.34 pg/mL | 15.63 pg/mL | 3653.12 pg/mL | 419.70 pg/mL | 6740.50 pg/mL | 2008.09 pg/mL | 18165.00 pg/mL | 15.63 pg/mL | 64.05 pg/mL | 15.63 pg/mL | 120.31 pg/mL | 15.63 pg/mL | 70.49 pg/mL | 15.63 pg/mL | 381.52 pg/mL | IL-1β production (human newborn cord blood; 1 µM): 387.41 pg/mL; TNF-α production (human newborn cord blood; 1 µM): 1780.16 pg/mL; IL-1β production (human newborn cord blood; 10 µM): 2820.52 pg/mL; TNF-α production (human newborn cord blood; 10 µM): 16542.73 pg/mL
3 | CCOCc1nc2c(N)nc3ccccc3c2n1CC(C)(C)O [R848, resiquimod, reference compound] | 15.63 pg/mL | 23.44 pg/mL | 15.63 pg/mL | 23.44 pg/mL | 14.94 pg/mL | 284.13 pg/mL | 15.63 pg/mL | 549.52 pg/mL | 191.49 pg/mL | 3939.41 pg/mL | 1922.12 pg/mL | 19454.73 pg/mL | 15.63 pg/mL | 95.80 pg/mL | 15.63 pg/mL | 84.29 pg/mL | 46.36 pg/mL | 68.30 pg/mL | 15.63 pg/mL | 210.98 pg/mL | EC50 [2]: 1000 nM; Concentration inducing TNF (human newborn MoDCs): 1 to 10 µM; IL-1β production (human newborn cord blood; 1 µM): 415.65 pg/mL; TNF-α production (human newborn cord blood; 1 µM): 654.85 pg/mL; IL-1β production (human newborn cord blood; 10 µM): 322.08 pg/mL; TNF-α production (human newborn cord blood; 10 µM): 1574.58 pg/mL
